According to patent publication US20250270213A1, “PI3Ka INHIBITORS” (Synnovation Therapeutics, Inc., priority 2022, published 2025):
pIC50: −log10 of the molar value.

Test system: T47D (PIK3CA H1047R) cells
Assay: pS473 AKT assay with 2.5% FBS, T47D cells
Assay type: cell-based
Settings: Homo sapiens, pSer473 AKT, DMEM with 2.5% FBS, 2 h treatment, read-out: T47D_IC50
Summary of the method: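 T47D (PIK3CA H1047R) cells were switched to DMEM with 2.5% FBS and exposed to compounds for 2 h. After paraformaldehyde fixation, pSer473 AKT was detected by in-cell ELISA (rabbit primary, HRP anti-rabbit secondary, chemiluminescence); IC50 values were fitted from the concentration series.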

| Structure (SMILES) | pIC50 |
| --- | --- |
| CCn1ncc2c3c(C(C)Nc4ccc(C)nc4-c4c[nH]nc4C)cc(C)cc3c(=O)n(C)c21 (centres unmarked) [Example 235, 3-ethyl-4,7-dimethyl-9-(1-((6-methyl-2-(3-methyl-1H-pyrazol-4-yl)pyridin-3-yl)amino)ethyl)-3,4-dihydro-5H-pyrazolo[3,4-c]isoquinolin-5-one] | > 6.00 |
| Cc1cc(C(C)Nc2ccc(Cl)nc2-c2ccc(=O)n(C)c2)c2c(c1)c(=O)n(C)c1c2cnn1CCO (centres unmarked) [Example 254, 9-[1-[[6-chloro-2-(1-methyl-6-oxo-3-pyridyl)-3-pyridyl]amino]ethyl]-3-(2-hydroxyethyl)-4,7-dimethyl-pyrazolo[3,4-c]isoquinolin-5-one] | > 6.00 |
| Cc1cc(C(C)Nc2ccc(Cl)nc2-c2ncn(C)n2)c2c(c1)c(=O)n(C)c1c2cnn1C1CCN(C)CC1 (centres unmarked) [Compound 159, 9-[1-[[6-chloro-2-(1-methyl-1,2,4-triazol-3-yl)-3-pyridyl]amino]ethyl]-4,7-dimethyl-3-(1-methyl-4-piperidyl)pyrazolo[3,4-c]isoquinolin-5-one] | > 6.00 |
| Cc1cc(C(CO)Nc2ccc(Cl)nc2-c2nnn(C)n2)c2c(c1)c(=O)n1c3c2cnn3CCC1 (centres unmarked) [Compound 332, 10-(1-((6-chloro-2-(2-methyl-2H-tetrazol-5-yl)pyridin-3-yl)amino)-2-hydroxyethyl)-8-methyl-4,5-dihydro-3H,6H-2,2a5a-triazaaceanthrylen-6-one] | > 6.00 |
| [2H]C([2H])([2H])n1c(=O)c2cc(C)cc(C(C)Nc3ccc(Cl)nc3-c3ncn(C)n3)c2c2cnn([C@H]3CCN(C)C3)c21 (stereo partly drawn) [Compound 105, 9-(1-((6-Chloro-2-(1-methyl-1H-1,2,4-triazol-3-yl)pyridin-3-yl)amino)ethyl)-7-methyl-4-(methyl-d3)-3-((S)-1-methylpyrrolidin-3-yl)-3,4-dihydro-5H-pyrazolo[3,4-c]isoquinolin-5-one] | > 6.00 |
| CCn1ncc2c3c(C(C)Nc4ccc(Cl)nc4-c4ccc(C(=O)N(C)C)cc4)cc(C)cc3c(=O)n(C)c21 (centres unmarked) [Compound 46, 4-(6-chloro-3-((1-(3-ethyl-4,7-dimethyl-5-oxo-4,5-dihydro-3H-pyrazolo[3,4-c]isoquinolin-9-yl)ethyl)amino)pyridin-2-yl)-N,N-dimethylbenzamide] | > 6.00 |
| Cc1cc(C(C)Nc2ccc(Cl)nc2-c2cnn(C)c2)c2c(c1)c(=O)n(C)c1c2cnn1C1CN(C)C1 (centres unmarked) [Compound 81, 9-(1-((6-Chloro-2-(1-methyl1H-pyrazol-4-yl)pyridin-3-yl)amino)ethyl)-4,7-dimethyl-3-(1-methylazetidin-3-yl)-3,4-dihydro-5H-pyrazolo[3,4-c]isoquinolin-5-one] | > 6.00 |
| Cc1cc(C(C)Nc2ccc(Cl)nc2-c2noc(=O)[nH]2)c2c(c1)c(=O)n(C)c1c2cnn1C1CCOC1 (centres unmarked) [Compound 66, 3-(6-Chloro-3-((1-(4,7-dimethyl-5-oxo-3-(tetrahydrofuran-3-yl)-4,5-dihydro-3H-pyrazolo[3,4-c]isoquinolin-9-yl)ethyl)amino)pyridin-2-yl)-1,2,4-oxadiazol-5(4H)-one] | > 6.00 |
| Cc1cc(C(C)Nc2ccc(Cl)nc2-c2cnn(C)c2)c2c(c1)c(=O)n(C)c1c2cnn1C1CCN(CC(C)(C)O)CC1 (centres unmarked) [Compound 172, 9-[1-[[6-Chloro-2-(1-methylpyrazol-4-yl)-3-pyridyl]amino]ethyl]-3-[1-(2-hydroxy-2-methyl-propyl)-4-piperidyl]-4,7-dimethyl-pyrazolo[3,4-c]isoquinolin-5-one] | > 6.00 |
| CCn1ncc2c3c(C(C)Nc4ccccc4C(=O)O)cc(C)cc3c(=O)n(CC)c21 (centres unmarked) [Compound I-23, 2-((1-(3,4-Diethyl-7-methyl-5-oxo-4,5-dihydro-3H-pyrazolo[3,4-c]isoquinolin-9-yl)ethyl)amino)benzoic acid] | > 6.00 |

Now from value to compound:

| pIC50 | Structure (SMILES) |
| --- | --- |
| > 6.00 | CCCn1cc2c3c(C(C)Nc4ccccc4C(=O)O)cc(C)cc3c(=O)n(C)c2n1 (centres unmarked) [Compound I-26, 2-((1-(4,7-Dimethyl-5-oxo-2-propyl-4,5-dihydro-2H-pyrazolo[3,4-c]isoquinolin-9-yl)ethyl)amino)benzoic acid] |
| > 6.00 | CCn1ncc2c3c(C(C)Nc4ccc(C)nc4C(=O)O)cc(C)cc3c(=O)n(CC)c21 (centres unmarked) [Compound I-25, 3-((1-(3,4-Diethyl-7-methyl-5-oxo-4,5-dihydro-3H-pyrazolo[3,4-c]isoquinolin-9-yl)ethyl)amino)-6-methylpicolinic acid] |
| > 6.00 | CCn1c(=O)c2cc(C)cc(C(C)Nc3ccc(Cl)nc3N3CCOCC3)c2c2cnn(CCO)c21 (centres unmarked) [Example 262, 9-[1-[(6-Chloro-2-morpholino-3-pyridyl)amino]ethyl]-4-ethyl-3-(2-hydroxyethyl)-7-methyl-pyrazolo[3,4-c]isoquinolin-5-one] |
| > 6.00 | Cc1cc(C(C)Nc2ccc(Cl)nc2-c2cnn(C3CCOCC3)c2)c2c(c1)c(=O)n1c3c2cnn3CCC1 (centres unmarked) [Compound 299, 10-(1-((6-chloro-2-(1-(tetrahydro-2H-pyran-4-yl)-1H-pyrazol-4-yl)pyridin-3-yl)amino)ethyl)-8-methyl-4,5-dihydro-3H,6H-2,2a,5a-triazaaceanthrylen-6-one] |
| > 6.00 | Cc1cc(C(C)Nc2ccc(Cl)nc2-c2ccc3c(cnn3C)c2)c2c(c1)c(=O)n(C)c1c2cnn1C1CN(C)C1 (centres unmarked) [Compound 88, 9-(1-((6-chloro-2-(1-methyl-1H-indazol-5-yl)pyridin-3-yl)amino)ethyl)-4,7-dimethyl-3-(1-methylazetidin-3-yl)-3,4-dihydro-5H-pyrazolo[3,4-c]isoquinolin-5-one] |
| > 6.00 | CCn1ncc2c3c(C(C)Nc4ccc(Cl)nc4-c4noc(=O)[nH]4)cc(Cl)cc3c(=O)n(C)c21 (centres unmarked) [Compound 63, 3-(6-Chloro-3-((1-(7-chloro-3-ethyl-4-methyl-5-oxo-4,5-dihydro-3H-pyrazolo[3,4-c]isoquinolin-9-yl)ethyl)amino)pyridin-2-yl)-1,2,4-oxadiazol-5(4H)-one] |
| > 6.00 | Cc1cc(C(C)Nc2ccc(Cl)nc2-c2cnn(C)c2)c2c(c1)c(=O)n(C)c1c(-c3cccnc3C)ncn21 (centres unmarked) [Compound 116, 9-(1-((6-Chloro-2-(1-methyl-1H-pyrazol-4-yl)pyridin-3-yl)amino)ethyl)-4,7-dimethyl-3-(2-methylpyridin-3-yl) imidazo[1,5-a]quinazolin-5(4H)-one] |
| > 6.00 | Cc1cc(C(C)Nc2ccc(Cl)nc2-c2cnn(C)c2)c2c(c1)c(=O)n(C)c1c2cnn1CCO (centres unmarked) [Example 244, 9-(1-((6-chloro-2-(1-methyl-1H-pyrazol-4-yl)pyridin-3-yl)amino)ethyl)-3-(2-hydroxyethyl)-4,7-dimethyl-3,4-dihydro-5H-pyrazolo[3,4-c]isoquinolin-5-one] |
| > 6.00 | CCn1c(=O)c2cc(C)cc(C(C)Nc3ccc(Cl)nc3-c3ncn(C)n3)c2c2cnn(C3CCN(C(C)=O)C3)c21 (centres unmarked) [Compound 149, 3-(1-acetylpyrrolidin-3-yl)-9-(1-((6-chloro-2-(1-methyl-1H-1,2,4-triazol-3-yl)pyridin-3-yl)amino)ethyl)-4-ethyl-7-methyl-3,4-dihydro-5H-pyrazolo[3,4-c]isoquinolin-5-one] |
| > 6.00 | CCn1c(=O)c2cc(C)cc(C(C)Nc3ccc(Cl)nc3-c3ncn(C)n3)c2c2cn(C3CCN(CCC#N)CC3)nc21 (centres unmarked) [Example 204, 3-(4-(9-(1-((6-Chloro-2-(1-methyl-1H-1,2,4-triazol-3-yl)pyridin-3-yl)amino)ethyl)-4-ethyl-7-methyl-5-oxo-4,5-dihydro-2H-pyrazolo[3,4-c]isoquinolin-2-yl)piperidin-1-yl)propanenitrile] |
